Where “and” joins values, the source holds several entries; their conditions need not be identical. Equal values may be shown once. Read-outs that look alike come from different tables or passages of the source.
Legend:
NL-PRMT5 with WDR77 = target: T1, NL-PRMT5 with WDR77 (Homo sapiens, UniProt O14744); assay: MRTX1719 kinetic washout (residence time) NanoBRET experiment in HEK293 cells; assay type: cell-based; details: 100uM MTA
T1 construct: host or cells: HEK293
Protocol: On the next day, cells were resuspended in a 15 mL falcon tube and adjusted to 2 × 10^5 cells/mL in assay medium (OptiMEM with 1% FBS). […] After incubation, cells were centrifuged at 300 × g for 5 min, medium was aspirated and cells were washed with pre-warmed assay medium, centrifuged again and adjusted to 2 × 10^5 cells/mL. For the full occupancy control, MTA and compound concentrations were maintained. 34 μL of cells were added per well in a seeded into 96-well non-binding surface-treated plates (Corning), followed by addition of 36 μL of Complete 2x Substrate (prepared by combining Nano-Glo Substrate and Extracellular NanoLuc Inhibitor in Opti-MEM, according to the manufacturer’s protocol (Promega)). Then, 2 μL of ETP CBH-002 at a final concentration of 30 nM were added before immediate readout at the PheraSTAR FSX for 6 h. Readout and analysis were conducted as described earlier.

NLuc-PRMT5 = NLuc-PRMT5 (Homo sapiens, UniProt O14744); assay: BRET probe sensitivity to exogenous MTA in live HEK293 cells expressing NLuc-PRMT5; assay type: cell-based; set-up: host or cells: HEK293 (live cells; digitonin lysate for the SAM titration); details: for remaining activity at […] / remaining activity at 1000 µM: Log([MTA]), room temperature, read-out: Normalized BRET probe signal; for remaining activity at 1000 µM: uM 3.00
Protocol: To measure BRET probe sensitivity to both MAT2A inhibition and exogenous MTA in live cells, HEK293 cells were pre-treated with 30 nM CBH-002 and incubated at 37 °C and 5% CO2 for 2 h. For MAT2A inhibition, a 20 µM, 3-fold, 11 pt titration series of Compound A (Selleckchem) was added to wells. Cells were incubated either at 37 °C (Fig. 3D) or room temperature (Fig. S3D). Data were normalized using Eq. (2), where BRETMIN = instrument background (no CBH-002), and BRETMAX = 2 h vehicle treatment, and fit curves were generated using Eq. (1). For MTA sensitivity cells were treated with a 1 mM, 11 pt, 2-fold series of MTA (Sigma) and cells were incubated at room temperature for 2 h, reading in 15 min intervals. Data were normalized using Eq. (2), where BRETMIN = instrument background (no CBH-002), and BRETMAX = 2 h + vehicle treatment. Data were fit with Eq. (1).

T1 sequence (O14744 whole entry): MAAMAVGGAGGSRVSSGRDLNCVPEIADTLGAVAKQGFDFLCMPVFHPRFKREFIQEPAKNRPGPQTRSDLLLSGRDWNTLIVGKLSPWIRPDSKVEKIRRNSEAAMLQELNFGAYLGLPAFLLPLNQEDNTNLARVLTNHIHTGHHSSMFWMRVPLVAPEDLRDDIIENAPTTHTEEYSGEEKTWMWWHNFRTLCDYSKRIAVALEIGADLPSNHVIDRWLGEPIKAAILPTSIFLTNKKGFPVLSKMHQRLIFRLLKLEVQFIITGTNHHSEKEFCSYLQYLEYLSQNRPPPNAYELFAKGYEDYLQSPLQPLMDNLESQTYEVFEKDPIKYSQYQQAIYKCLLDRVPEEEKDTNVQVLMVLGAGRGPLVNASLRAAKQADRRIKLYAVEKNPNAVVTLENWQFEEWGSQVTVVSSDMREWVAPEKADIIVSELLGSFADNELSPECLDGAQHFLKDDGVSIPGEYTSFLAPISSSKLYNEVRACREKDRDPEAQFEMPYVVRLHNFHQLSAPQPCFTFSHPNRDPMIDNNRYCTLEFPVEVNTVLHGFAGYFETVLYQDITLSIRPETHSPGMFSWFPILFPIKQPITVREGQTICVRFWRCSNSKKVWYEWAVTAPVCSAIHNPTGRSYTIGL
T1 sequence (Q9BQA1 whole entry partner): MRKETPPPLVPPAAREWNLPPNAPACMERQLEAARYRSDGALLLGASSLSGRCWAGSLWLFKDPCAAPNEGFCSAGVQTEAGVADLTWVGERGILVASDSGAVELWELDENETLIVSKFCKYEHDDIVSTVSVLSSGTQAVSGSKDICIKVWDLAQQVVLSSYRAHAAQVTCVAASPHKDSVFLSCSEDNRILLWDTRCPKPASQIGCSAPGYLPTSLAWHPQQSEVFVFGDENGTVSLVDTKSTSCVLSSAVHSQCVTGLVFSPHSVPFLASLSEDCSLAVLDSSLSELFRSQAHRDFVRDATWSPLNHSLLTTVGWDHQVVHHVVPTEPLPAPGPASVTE
NLuc-PRMT5, sequence (O14744 whole entry): as the sequence (O14744 whole entry) above
NLuc-PRMT5, sequence (Q9BQA1 whole entry partner): as the sequence (Q9BQA1 whole entry partner) above

BRET, Figure S5I (NL-PRMT5 with WDR77; time 72 min): 1.398 and 1.341 and 1.428 and 1.319
remaining activity at […] (NLuc-PRMT5; HEK293, 0.5 h, uM 0.29, Time (min) 30): 98.1%
remaining activity at […] (NLuc-PRMT5; HEK293, 0.5 h, uM 0.59, Time (min) 30): 97.9%
remaining activity at […] (NLuc-PRMT5; HEK293, 0.5 h, uM 0.89, Time (min) 30): 99.1%
remaining activity at […] (NLuc-PRMT5; HEK293, 0.5 h, uM 1.19, Time (min) 30): 97.4%
remaining activity at […] (NLuc-PRMT5; HEK293, 0.5 h, uM 1.49, Time (min) 30): 95.2%
remaining activity at […] (NLuc-PRMT5; HEK293, 0.5 h, uM 1.80, Time (min) 30): 93%
remaining activity at […] (NLuc-PRMT5; HEK293, 0.5 h, uM 2.10, Time (min) 30): 90.2%
remaining activity at […] (NLuc-PRMT5; HEK293, 0.5 h, uM 2.40, Time (min) 30): 87.8%
remaining activity at […] (NLuc-PRMT5; HEK293, 0.5 h, uM 2.70, Time (min) 30): 86.4%
remaining activity at 1000 µM (NLuc-PRMT5; HEK293, 0.5 h, Time (min) 30): 85.4%
remaining activity at […] (NLuc-PRMT5; HEK293, 1 h, uM 0.29, Time (min) 60): 99.2%
remaining activity at […] (NLuc-PRMT5; HEK293, 1 h, uM 0.59, Time (min) 60): 99.7%
remaining activity at […] (NLuc-PRMT5; HEK293, 1 h, uM 0.89, Time (min) 60): 98.1%
remaining activity at […] (NLuc-PRMT5; HEK293, 1 h, uM 1.19, Time (min) 60): 96.8%
remaining activity at […] (NLuc-PRMT5; HEK293, 1 h, uM 1.49, Time (min) 60): 94.8%
remaining activity at […] (NLuc-PRMT5; HEK293, 1 h, uM 1.80, Time (min) 60): 91.1%
remaining activity at […] (NLuc-PRMT5; HEK293, 1 h, uM 2.10, Time (min) 60): 87.7%
remaining activity at […] (NLuc-PRMT5; HEK293, 1 h, uM 2.40, Time (min) 60): 84.6%
remaining activity at […] (NLuc-PRMT5; HEK293, 1 h, uM 2.70, Time (min) 60): 79.9%
remaining activity at 1000 µM (NLuc-PRMT5; HEK293, 1 h, Time (min) 60): 78.1%
remaining activity at […] (NLuc-PRMT5; HEK293, 2 h, uM 0.29, Time (min) 120): 98.3%
remaining activity at […] (NLuc-PRMT5; HEK293, 2 h, uM 0.59, Time (min) 120): 98.5%
remaining activity at […] (NLuc-PRMT5; HEK293, 2 h, uM 0.89, Time (min) 120): 97.2%
remaining activity at […] (NLuc-PRMT5; HEK293, 2 h, uM 1.19, Time (min) 120): 96%
remaining activity at […] (NLuc-PRMT5; HEK293, 2 h, uM 1.49, Time (min) 120): 93.7%
remaining activity at […] (NLuc-PRMT5; HEK293, 2 h, uM 1.80, Time (min) 120): 90%
remaining activity at […] (NLuc-PRMT5; HEK293, 2 h, uM 2.10, Time (min) 120): 85.1%
remaining activity at […] (NLuc-PRMT5; HEK293, 2 h, uM 2.40, Time (min) 120): 81.7%
remaining activity at […] (NLuc-PRMT5; HEK293, 2 h, uM 2.70, Time (min) 120): 75.7%
remaining activity at 1000 µM (NLuc-PRMT5; HEK293, 2 h, Time (min) 120): 72.8%
Time to plateau of BRET inhibition (NLuc-PRMT5; live HEK293, room temperature): ~ 2 h
SMILES: CSC[C@H]1O[C@@H](n2cnc3c(N)ncnc32)[C@H](O)[C@@H]1O [MTA, methylthioadenosine]
BRET, Figure S5I (NL-PRMT5 with WDR77; time 0 min): 0.1105 and 0.1241 and 0.1192 and 0.1078 and 0.1088 and 0.1195 and 0.1138 and 0.1151
BRET, Figure S5I (NL-PRMT5 with WDR77; time 6 min): 0.3119 and 0.3036 and 0.3616 and 0.2837 and 0.2843 and 0.315 and 0.3325 and 0.3197
BRET, Figure S5I (NL-PRMT5 with WDR77; time 12 min): 0.5293 and 0.4857 and 0.5913 and 0.4586 and 0.456 and 0.5044 and 0.5405 and 0.5123
BRET, Figure S5I (NL-PRMT5 with WDR77; time 18 min): 0.7285 and 0.6611 and 0.7995 and 0.6306 and 0.6158 and 0.6735 and 0.7234 and 0.6889
BRET, Figure S5I (NL-PRMT5 with WDR77; time 24 min): 0.8959 and 0.8098 and 0.9637 and 0.7786 and 0.7595 and 0.8227 and 0.869 and 0.8404
BRET, Figure S5I (NL-PRMT5 with WDR77; time 30 min): 1.03 and 0.937 and 1.09 and 0.9086 and 0.8803 and 0.9486 and 0.9887 and 0.9612
BRET, Figure S5I (NL-PRMT5 with WDR77; time 36 min): 1.134 and 1.042 and 1.191 and 1.015 and 0.9796 and 1.049 and 1.086 and 1.061
BRET, Figure S5I (NL-PRMT5 with WDR77; time 42 min): 1.201 and 1.125 and 1.257 and 1.0947 and 1.057 and 1.127 and 1.168 and 1.1428
BRET, Figure S5I (NL-PRMT5 with WDR77; time 48 min): 1.264 and 1.1938 and 1.301 and 1.164 and 1.1261 and 1.183 and 1.221 and 1.192
BRET, Figure S5I (NL-PRMT5 with WDR77; time 54 min): 1.305 and 1.245 and 1.342 and 1.215 and 1.178 and 1.2272 and 1.267 and 1.255
BRET, Figure S5I (NL-PRMT5 with WDR77; time 60 min): 1.34 and 1.2815 and 1.366 and 1.252 and 1.226 and 1.27 and 1.304 and 1.278
BRET, Figure S5I (NL-PRMT5 with WDR77; time 66 min): 1.37 and 1.322 (2×) and 1.406 and 1.285 and 1.248 and 1.298 and 1.329

From paper PMC12675575, “A BRET biosensor for measuring uncompetitive engagement of PRMT5 complexes in cells” (Nature Communications, 2025)
